# Results: patent US20250051732A1, “KIDNEY-ON-A-CHIP COMPRISING RENAL TUBULE CULTURE PART AND INTERSTITIUM CULTURE PART” (Seoul National University Hospital, priority 2021, published 2025)
# Legend:
# Format in all cases: cell-based, human
# [1] = system: normal kidney-on-a-chip (renal tubular epithelial cells (HK-2 cells), renal fibroblasts derived from normal kidney tissue, GFP-HUVEC); experiment: Normal kidney-on-a-chip, TGF-β stimulation: CCK8 and α-SMA immunofluorescence and blood vessels; details: TGF-β 5 ng/ml, 24 hours
# Protocol: (§1) Specifically, vascular endothelial cells (GFP-HUVEC) at 2000×10^4/ml and fibrin gel at 10 mg/ml were seeded in the vascular endothelial cell region (yellow region in FIG. 12B, Gel A) of the interstitium culture part of the kidney-on-a-chip manufactured above as 1 in FIG. 12C and cultured at room temperature for 2 to 3 minutes. Next, primary human renal fibroblasts derived from a patient with renal failure at 400×10^4/ml and fibrin gel at 10 mg/ml were seeded in the renal fibroblast region (red region in FIG. 12B, Gel C) of the interstitium culture part of the kidney-on-a-chip manufactured above as 2 in FIG. 12C and cultured at room temperature for 2 to 3 minutes. Afterwards, 5 to 10 μl of the human renal tubular epithelial cell (Human Kidney-2 cell, HK-2 cell) suspension at 300×10^4/ml was seeded in the renal tubule culture part (blue region in FIG. 12B, Gel B) of the kidney-on-a-chip as 3 in FIG. 12C, tilted 90° in the desired direction (upward in this experiment), and cultured at 37° C. for 30 minutes. After culture, each region of the kidney-on-a-chip was filled with 150 μl of the same medium as that in A. of Example 2-2. The renal tubular epithelial cells, vascular endothelial cells, renal fibroblasts and the like were seeded, cultured for 3 days, then treated with TGF-β at 5 ng/ml and TGF-β at 5 ng/ml and a TGF-β inhibitor at 10 μM, respectively, and reacted for 24 hours.
# The following immunofluorescence staining was performed to examine whether the kidney-on-a-chip manufactured above normally mimics a living body. Cells in each of the renal tubule culture part and interstitium culture part of the kidney-on-a-chip were fixed with 4% paraformaldehyde fixative (Biosesang, #P2031) at room temperature for 20 minutes, washed with 1×PBS, then treated with 0.2% Triton-X (Sigma, #T9284), and cultured at room temperature for 20 minutes. The cells were then treated with 3% BSA, reacted at room temperature for 40 minutes, and then washed with 1×PBS. […]
# [2] = system: vascular endothelial cells (GFP-HUVEC) in interstitium culture part; experiment: Renal fibrosis-on-a-chip: degree of angiogenesis (length and diameter of blood vessels, ImageJ); details: 24 hours
# Protocol: Through comparative analysis of an organ-on-a-chip mimicking normal kidney tissue and an organ-on-a-chip mimicking renal fibrosis, evaluation indices for screening for renal fibrosis therapeutic agents were deduced in the following manner. At this time, human-derived renal fibroblasts, vascular endothelial cells (GFP-HUVEC), and renal tubular epithelial cells were seeded in the kidney-on-a-chip (FIG. 12A) manufactured in Example 3 in the same manner as in A. of Example 3, and cultured to manufacture a kidney-on-a-chip. However, two types of renal fibroblasts of renal fibroblasts derived from normal kidney tissue (hereinafter referred to as normal kidney-on-a-chip) and renal fibroblasts derived from renal fibrosis kidney tissue (hereinafter referred to as renal fibrosis-on-a-chip) were used as the renal fibroblasts to manufacture two types of kidney-on-chips.
# The two types of kidney-on-chips were divided into the control group (control in FIGS. 13A to 13D) in which each of the two types of kidney-on-chips was not treated with TGF-β and the TGF-β group (TGF β in FIGS. 13A to 13D) in which each of the two types of kidney-on-chips was treated with TGF-β unlike Example 3, and immunofluorescence staining was performed in the same manner as in B. of Example 3. At this time, the renal tubular epithelial cells in the renal tubule culture part of each kidney-on-a-chip were treated with CCK8 antibody and α-SMA antibody, respectively, their fluorescence expression was photographed using a confocal microscope (MICROSCOPE CONFOCAL LASER SCANNING ZEISS LSM 710), the mean fluorescence intensity of each image was measured using the analysis program of the confocal microscope, then the result values of CCK8 and α-SMA measured for each group were compared to the values for the control group (control) to comparatively analyze the difference in expression levels, and the results are as illustrated in FIGS. 13A to 13D.
# It is more reasonable to compare the kidney-on-a-chip of Example 3 to the pathological tissue of a patient from which kidney cells were obtained rather than comparing the kidney-on-a-chip to a laboratory animal model of renal fibrosis, so the evaluation indices for screening for renal fibrosis therapeutic agents were deduced by manufacturing a kidney-on-a-chip and performing comparative analysis in the same manner as in Experimental Example 1. […] In this experiment, three types of kidney-on-chips were manufactured: the control group (control in FIGS. 15 to 20) not treated with TGF-β, the TGF-β group (TGF β in FIGS. 15 to 20) treated with TGF-β in Experimental Example 1, and a TGF-β inhibition group (TGF β inhibitor in FIGS. 15 to 20) that was treated with TGF-β at 5 ng/ml and a TGF-β inhibitor at 10 μM and reacted for 24 hours.
# For the three types of kidney-on-chips of the control group, the TGF-β group, and the TGF-β inhibition group, vascular endothelial cells (GFP-HUVEC) present in the vascular endothelial cell region of the interstitium culture part were photographed using a confocal microscope (MICROSCOPE CONFOCAL LASER SCANNING ZEISS LSM 710). […] The result values measured for each of the control group, TGF-β group, and TGF-β inhibition group were compared to the values for the control group according to each index to comparatively analyze the length and diameter of thin blood vessels and the length and diameter of thick blood vessels, and the results are as illustrated in FIGS. 17 to 18.
# [3] = system: vascular endothelial growth factor (VEGF); experiment: Renal fibrosis-on-a-chip: VEGF real-time PCR; details: two renal fibrosis-on-chips (patients GFP >90, 60 to 90), TGF-β 5 ng/ml alone or with TGF-β inhibitor 10 μM, 24 hours, FIG. 20
# Protocol: An experiment was performed in the same manner as in Experimental Example 3-1, but real-time PCR was performed to examine whether the vascular endothelial growth factor (VEGF) can be used as an evaluation index.
# Specifically, for each of the control group, TGF-β group, and TGF-β inhibition group of each of the two types of kidney-on-chips manufactured from a patient with GFP >90 and a patient with GFP 60 to 90 in Experimental Example 3-1, RNA was isolated from all of the renal tubular epithelial cells (HK-2 cells), fibroblasts, and vascular endothelial cells (GFP-HUVEC) co-cultured in each kidney-on-a-chip, cDNA was synthesized from this according to a method known in the art and mixed with VEGF primers and SYBER green, and the expression level of VEGF was measured using real-time PCR equipment (REAL TIME PCR SYSTEM, Applied Biosystems ViiA7). After measurement, the result values for each group measured using the equipment were compared to the values for the control group of each of the […] of kidney-on-chips to comparatively analyze the difference in expression level of VEGF, and the results are as illustrated in FIG. 20.
# [4] = system: renal tubular epithelial cells (HK-2 cells) in renal fibrosis-on-a-chip; experiment: Renal fibrosis-on-a-chip: CCK8 and α-SMA immunofluorescence in renal tubule culture part; details: 24 hours
# Protocol: as §1
# The following immunofluorescence staining was performed to examine whether the kidney-on-a-chip manufactured above normally mimics a living body. Cells in each of the renal tubule culture part and interstitium culture part of the kidney-on-a-chip were fixed with 4% paraformaldehyde fixative (Biosesang, #P2031) at room temperature for 20 minutes, washed with 1×PBS, then treated with 0.2% Triton-X (Sigma, #T9284), and cultured at room temperature for 20 minutes. The cells were then treated with 3% BSA, reacted at room temperature for 40 minutes, and then washed with 1×PBS. Next, the cells were treated with primary antibodies (α-SMA antibody (diluted at 1:100) for renal fibroblasts and cytokeratin 8 (CCK8) antibody (diluted at 1:200) for renal tubular epithelial cells) diluted with 1% BSA, reacted at room temperature for 2 days, and washed again with 1×PBS. After washing, the cells were treated with secondary antibodies against each marker diluted with 1% BSA at 1:100 and the antibody Hoechst diluted with 1% BSA at 1:250, reacted at room temperature for 3 hours, washed again with 1×PBS, and then photographed using a confocal microscope, and the results are illustrated in FIG. 12D. […]
# [5] = system: kidney injury molecule-1 (KIM-1); experiment: Renal fibrosis-on-a-chip: KIM-1 ELISA of culture solution; details: three renal fibrosis-on-chips (patients GFP >90, 60 to 90, <60), TGF-β 5 ng/ml alone or with TGF-β inhibitor 10 μM, 24 hours, FIG. 19
# Protocol: An experiment was performed in the same manner as in Experimental Example 2, but enzyme-linked immunosorbent assay (ELISA assay) was performed to examine whether kidney injury molecule-1 (KIM-1) could be used as an evaluation index.
# Specifically, renal fibroblasts obtained from each of three patients having GFP >90, GFP 60 to 90, and GFP <60 and purchased vascular endothelial cells (GFP-HUVEC) and renal tubular epithelial cells (HK-2 cells) were co-cultured in the vascular endothelial cell medium in the same manner as in Experimental Example 1 to manufacture three types of kidney-on-chips. Next, the medium was collected for each of the control group, TGF-β group, and TGF-β inhibition group of each of the three types of kidney-on-chips, the medium of each group was diluted at an appropriate ratio, and then ELISA analysis was performed according to the instructions of the KIM-1 (human) ELISA kit (Enzo Life Sciences, Inc, #ADI-900-226-0001). Afterwards, the result values for each group were measured at 450 nm using ELISA READER (SPECTRAMAX PLUS384), each measured result value was compared to the value for the control group of each of the three types of kidney-on-chips to comparatively analyze the difference in expression level of KIM-1, and the results are as illustrated in FIG. 19.
# [6] = renal tubular epithelial cell region, vs control, FIG. 13A, 13B
# [7] = renal fibrosis-on-a-chip (Experimental Example 1), renal tubular epithelial cell region, TGF-β 5 ng/ml, vs control, FIG. 13C, 13D
# [8] = three renal fibrosis-on-chips (patients GFR >90, 60-90, <60), TGF-β 5 ng/ml alone or with TGF-β inhibitor 10 μM, FIG. 15, 16
substance,measurement,setting,value
transforming growth factor-β [TGF-β],expression level of CCK8,[1]; [6],decreased
same,expression level of α-SMA,[1]; [6],increased
same,number of thin blood vessels,[1]; vascular endothelial cell region of interstitium culture part,increased
same,number of thin blood vessels,"[2]; renal fibrosis-on-a-chip (Experimental Example 1), vascular endothelial cell region, TGF-β 5 ng/ml",increased
same,total length of thick blood vessels (50 μm or more),"[2]; three renal fibrosis-on-chips, TGF-β 5 ng/ml alone or with TGF-β inhibitor 10 μM, FIG. 17A",decreased
same,diameter of thick blood vessels,"[2]; three renal fibrosis-on-chips, TGF-β 5 ng/ml alone or with TGF-β inhibitor 10 μM, FIG. 17B",decreased
same,total length of thin blood vessels (less than 50 μm),"[2]; three renal fibrosis-on-chips, TGF-β 5 ng/ml alone or with TGF-β inhibitor 10 μM, FIG. 18A",increased
same,diameter of thin blood vessels,"[2]; three renal fibrosis-on-chips, TGF-β 5 ng/ml alone or with TGF-β inhibitor 10 μM, FIG. 18B",decreased
same,expression level of VEGF,[3],increased
same,expression level of CCK8,[4]; [7],decreased
same,expression level of α-SMA,[4]; [7],increased
same,expression level of CCK8,[4]; [8],decreased
same,expression level of α-SMA,[4]; [8],increased
same,expression level of KIM-1 in the culture solution,[5],increased
